Experimental data: the supplement of paper PMC13380429

Columns and labels:
[1] = test system: A549-ACE2 infected with SARS-CoV-2; experiment: cell count relative to DMSO; higher = less toxic; conditions: 24 h
Caco-2 [2] = experiment: cell viability relative to DMSO; higher = less toxic; conditions: 72 h
Calu-3 [3] = experiment: as above; conditions: 72 h
HepG2 [4] = experiment: as above; conditions: 72 h
U2OS [5] = experiment: as above; conditions: 72 h
Vero E6 [6] = experiment: as above; conditions: 72 h
[7] = test system: A549-ACE2 infected with SARS-CoV-2; experiment: SARS-CoV-2 infection rate relative to DMSO; higher = more infection; conditions: 24 h
A549-ACE2 = experiment: drug-induced phospholipidosis relative to tamoxifen; higher = more phospholipidosis
[8] = test system: A549-ACE2 infected with SARS-CoV-2; experiment: morphology score (similarity to uninfected cells); higher = more like uninfected cells; conditions: 24 h
Calu-3 [9] = experiment: relative viability EC50 (midpoint between 100% and the lowest measured viability); higher = less toxic; conditions: 72 h
Vero E6 [10] = experiment: as above; conditions: 72 h
Caco-2 [11] = experiment: drug sensitivity score (DSS) for viability; higher = more toxic; extreme values may be limits of the assay; conditions: 72 h
Calu-3 [12] = experiment: as above; conditions: 72 h
HepG2 [13] = experiment: as above; conditions: 72 h
U2OS [14] = experiment: as above; conditions: 72 h
Vero E6 [15] = experiment: as above; conditions: 72 h
Caco-2 [16] = experiment: relative viability EC50 (midpoint between 100% and the lowest measured viability); higher = less toxic; conditions: 72 h
HepG2 [17] = experiment: as above; conditions: 72 h
U2OS [18] = experiment: as above; conditions: 72 h

CNC(=O)c1ccccc1Sc1ccc2c(/C=C/c3ccccn3)n[nH]c2c1 [axitinib]
Conditions | SARS-CoV-2 infection rate, [7] [%] | cell count, [1] [%] | cell viability, Caco-2 [2] [%] | cell viability, Calu-3 [3] [%] | cell viability, HepG2 [4] [%] | cell viability, U2OS [5] [%] | cell viability, Vero E6 [6] [%] | morphology score, [8]
1 nM | – | – | 97.2 | 108 | 111 | 102 | 114 | –
10 nM | – | – | 108 | 102 | 97.7 | 104 | 106 | –
100 nM | – | – | 92 | 93.6 | 108 | 103 | 108 | –
0.3 µM | 92 | 105 | – | – | – | – | – | 0.34
1000 nM | – | – | 97.8 | 86.7 | 92.2 | 105 | 101 | –
3 µM | 98 | 75 | – | – | – | – | – | 0.32
10 µM | 96 | 77 | – | – | – | – | – | 0.35
10000 nM | – | – | 72.5 | 81 | 71.8 | 74 | 94.2 | –
30 µM | 91 | 68 | – | – | – | – | – | 0.49

drug-induced phospholipidosis [%], A549-ACE2
Conditions | 0.3 µM | 0.833333 µM | 3.33333 µM | 6.66667 µM | 10 µM | 30 µM
24 h | 2.86 | 4.48 | 16.8 | 10.3 | 7.44 | 17.1
48 h | 1.43 | 3.96 | 7.83 | 7.9 | 8.63 | 15.9
72 h | 4.56 | 4.58 | – | – | – | –

Conditions | drug sensitivity score | relative viability EC50 [µM]
Caco-2 [11] | 1.5 | –
Calu-3 [9] | – | > 10
Calu-3 [12] | 1.7 | –
HepG2 [13] | 2.3 | –
U2OS [14] | 0.8 | –
Vero E6 [10] | – | > 10
Vero E6 [15] | 0 | –

C[C@H]1[C@H](NC(=O)/C(=N\OC(C)(C)C(=O)O)c2csc(N)n2)C(=O)N1S(=O)(=O)O [aztreonam]
Conditions | SARS-CoV-2 infection rate, [7] [%] | cell count, [1] [%] | cell viability, Caco-2 [2] [%] | cell viability, Calu-3 [3] [%] | cell viability, HepG2 [4] [%] | cell viability, U2OS [5] [%] | cell viability, Vero E6 [6] [%] | morphology score, [8]
1 nM | – | – | 96.9 | 103 | 93 | 99.3 | 93 | –
10 nM | – | – | 91.7 | 99.8 | 108 | 93.9 | 95.2 | –
100 nM | – | – | 94.5 | 94.6 | 96.3 | 98.4 | 93.3 | –
0.3 µM | 105 | 102 | – | – | – | – | – | 0.12
1000 nM | – | – | 96.2 | 95.6 | 101 | 97.6 | 96.1 | –
3 µM | 109 | 97 | – | – | – | – | – | -0.22
10 µM | 98 | 99 | – | – | – | – | – | 0.07
10000 nM | – | – | 104 | 103 | 104 | 92.5 | 102 | –
30 µM | 93 | 107 | – | – | – | – | – | 0.28

drug-induced phospholipidosis [%], A549-ACE2
Conditions | 0.3 µM | 0.833333 µM | 3.33333 µM | 6.66667 µM | 10 µM | 30 µM
24 h | 0.05 | -0.48 | -0.4 | 1.8 | 0.46 | 0.6
48 h | 4.27 | 0.47 | -0.36 | -0.48 | 2.78 | 5.88
72 h | 2.06 | -3.37 | -0.186 | -0.381 | 3.05 | 4.25

Conditions | drug sensitivity score | relative viability EC50 [µM]
Caco-2 [11] | 0 | –
Caco-2 [16] | – | > 10
Calu-3 [9] | – | > 10
Calu-3 [12] | 0 | –
HepG2 [13] | 0 | –
HepG2 [17] | – | > 10
U2OS [14] | 0 | –
U2OS [18] | – | > 10
Vero E6 [10] | – | > 10
Vero E6 [15] | 0 | –

OC(CCN1CCCCC1)(c1ccccc1)C1CC2C=CC1C2 (configuration not stated) [biperiden]
Conditions | SARS-CoV-2 infection rate, [7] [%] | cell count, [1] [%] | cell viability, Caco-2 [2] [%] | cell viability, Calu-3 [3] [%] | cell viability, HepG2 [4] [%] | cell viability, U2OS [5] [%] | cell viability, Vero E6 [6] [%] | morphology score, [8]
1 nM | – | – | 93.2 | 103 | 93.3 | 99.4 | 92.7 | –
10 nM | – | – | 96 | 108 | 108 | 101 | 95.8 | –
100 nM | – | – | 99 | 108 | 99.5 | 102 | 95.2 | –
0.3 µM | 106 | 100 | – | – | – | – | – | -0.01
1000 nM | – | – | 97.9 | 101 | 110 | 97 | 96.2 | –
3 µM | 76 | 107 | – | – | – | – | – | 0.49
10 µM | 55 | 112 | – | – | – | – | – | 0.74
10000 nM | – | – | 104 | 95.4 | 97.2 | 95.3 | 101 | –
30 µM | 44 | 113 | – | – | – | – | – | 0.76

drug-induced phospholipidosis [%], A549-ACE2
Conditions | 0.3 µM | 0.833333 µM | 3.33333 µM | 6.66667 µM | 10 µM | 30 µM
24 h | 6.44 | 3.39 | 3.47 | 5.73 | 10.9 | 32.9
48 h | 5.46 | -0.33 | 0.38 | 9.63 | 13.4 | 30.6
72 h | 8.44 | 0.683 | 2.98 | 6.62 | 5.63 | 27.3

Conditions | drug sensitivity score | relative viability EC50 [µM]
Caco-2 [11] | 0 | –
Caco-2 [16] | – | > 10
Calu-3 [9] | – | > 10
Calu-3 [12] | 0 | –
HepG2 [13] | 0 | –
HepG2 [17] | – | > 10
U2OS [14] | 0 | –
U2OS [18] | – | > 10
Vero E6 [10] | – | > 10
Vero E6 [15] | 0 | –

COc1c(OCCCN2CCOCC2)ccc2c1N=C(NC(=O)c1cnc(N)nc1)N1CCN=C21 [copanlisib]
Conditions | SARS-CoV-2 infection rate, [7] [%] | cell count, [1] [%] | cell viability, Caco-2 [2] [%] | cell viability, Calu-3 [3] [%] | cell viability, HepG2 [4] [%] | cell viability, U2OS [5] [%] | cell viability, Vero E6 [6] [%] | morphology score, [8]
1 nM | – | – | 99.2 | 102 | 98.5 | 101 | 98.8 | –
10 nM | – | – | 98.7 | 93.1 | 109 | 96.2 | 105 | –
0.1 µM | 101 | 101 | – | – | – | – | – | 0.23
100 nM | – | – | 94.6 | 95.4 | 101 | 98.2 | 96 | –
0.3 µM | 97 | 100 | – | – | – | – | – | 0.09
1 µM | 90 | 98 | – | – | – | – | – | 0.35
1000 nM | – | – | 86.9 | 73.4 | 71 | 96.9 | 89.8 | –
3 µM | 92 | 83 | – | – | – | – | – | 0.32
10000 nM | – | – | 34.9 | 32.9 | 51.9 | 67.5 | 65.1 | –

drug-induced phospholipidosis [%], A549-ACE2
Conditions | 0.3 µM | 0.833333 µM | 3.33333 µM | 6.66667 µM | 10 µM | 30 µM
24 h | -3.17 | -4.37 | 0.15 | 5.67 | 10.8 | 56.5
48 h | -1.4 | -3.62 | 0.68 | 3.97 | 5.69 | –
72 h | -0.924 | -3.86 | 0.214 | 2.05 | – | –

Conditions | drug sensitivity score | relative viability EC50 [µM]
Caco-2 [11] | 5.7 | –
Caco-2 [16] | – | 1.73
Calu-3 [9] | – | 1.26
Calu-3 [12] | 6.8 | –
HepG2 [13] | 6 | –
U2OS [14] | 2 | –
Vero E6 [15] | 2.9 | –
